Reference: PubChem BioAssay (NCI)
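Compound exposure: 48 hours, 5 concentrations, 96-well plates. TGI is the concentration that stops growth completely.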

Legend:
Assay in all cases: DTP human tumour cell line panel, 48 h
UACC-257 melanoma = system: UACC-257 melanoma
U251 CNS = system: U251 CNS
K-562 leukemia = system: K-562 leukemia
A498 renal = system: A498 renal
UO-31 renal = system: UO-31 renal
CCRF-CEM leukemia = system: CCRF-CEM leukemia
NCI-H226 lung = system: NCI-H226 lung
OVCAR-8 ovarian = system: OVCAR-8 ovarian
SF-268 CNS = system: SF-268 CNS
EKVX NSCLC = system: EKVX NSCLC
SF-295 CNS = system: SF-295 CNS
SK-OV-3 ovarian = system: SK-OV-3 ovarian
OVCAR-3 ovarian = system: OVCAR-3 ovarian
NCI-H522 lung = system: NCI-H522 lung
KM12 colon = system: KM12 colon
CAKI-1 renal = system: CAKI-1 renal
HCT-15 colon = system: HCT-15 colon
HL-60(TB) leukemia = system: HL-60(TB) leukemia
COLO 205 colon = system: COLO 205 colon
MCF7 breast = system: MCF7 breast

SMILES	TGI (UACC-257 melanoma) [µM]	TGI (U251 CNS) [µM]	TGI (K-562 leukemia) [µM]	TGI (A498 renal) [µM]	TGI (UO-31 renal) [µM]	TGI (CCRF-CEM leukemia) [µM]	TGI (NCI-H226 lung) [µM]	TGI (OVCAR-8 ovarian) [µM]	TGI (SF-268 CNS) [µM]	TGI (EKVX NSCLC) [µM]	TGI (SF-295 CNS) [µM]	TGI (SK-OV-3 ovarian) [µM]	TGI (OVCAR-3 ovarian) [µM]	TGI (NCI-H522 lung) [µM]	TGI (KM12 colon) [µM]	TGI (CAKI-1 renal) [µM]	TGI (HCT-15 colon) [µM]	TGI (HL-60(TB) leukemia) [µM]	TGI (COLO 205 colon) [µM]	TGI (MCF7 breast) [µM]
O=C(c1ccco1)C1CC(c2c(O)ccc3ccccc23)=NN1 (stereo not given)	57.9	34.1	> 100	40.4	23.1	93	40.2	51.5	30.2	32.4	23.3	56.6	25.8	22.5	24.3	38.8	> 100	53.8	21.7	22
CC1(C)OC2CC(=O)OCC23C1CC(=O)C1(C)C3CCC2(C)C(c3ccoc3)OC(=O)C3OC321 (stereo not given)	> 125	> 125	> 70.3	> 125	> 125	> 125	> 125	7.03	> 125	> 58	> 125	> 125	> 125	> 125	> 125	> 125	> 125	> 125	> 125	> 70.3
